Key:
[1] = test system: spontaneously hypertensive rats (SHRs); assay: IV bolus in spontaneously hypertensive rats; assay type: in vivo, rat; settings: SHR, single IV bolus 10 mg/kg
Experimental: Methods (IV Bolus Administration of Compound 19 in (SHRs): the cGMP generating and blood pressure lowering actions of a single IV bolus dose of Compound 19 at 10 mg/kg in spontaneously hypertensive rats (SHRs; n=2; 12 weeks old; Envigo, East Millstone, N.J.) were investigated. Studies were performed in accordance with the Animal Welfare Act and with approval of the Mayo Clinic Institutional Animal Care and Use Committee.
SHRs were anesthetized in an induction chamber with inhaled isoflurane 3%.
During this brief state of anesthesia, SHRs were administered Inactin (100 mg/kg; IP to induce anesthesia and then maintained with by additional Inactin 100 mg/kg (IP), as required. Once adequate anesthesia was achieved, the anesthetized SHRs were subjected to vessel and bladder cannulation for Compound 19 administration, blood sampling and urine collection. A polyethylene (PE)-50 tube catheter was placed into the jugular vein for Compound 19 intravenous (IV) administration. The carotid artery was cannulated with a PE-50 tube catheter for blood pressure monitoring and blood sampling/collection. The bladder was accessed and cannulated with a PE-50 tube catheter for passive urine collection. After completion of the above procedural set up, a 45-minute equilibration period was performed that included a 30-minute baseline urine collection and a single baseline blood sample was performed.

[2] = target: T1, extracellular domain of human pGC-A (Homo sapiens, UniProt P16066); assay: SPR binding of compound 19 to pGC-A extracellular domain (Example 5)
T1 construct: the extracellular domain of human pGC-A was used
T1 sequence (P16066 33-473 limits assumed): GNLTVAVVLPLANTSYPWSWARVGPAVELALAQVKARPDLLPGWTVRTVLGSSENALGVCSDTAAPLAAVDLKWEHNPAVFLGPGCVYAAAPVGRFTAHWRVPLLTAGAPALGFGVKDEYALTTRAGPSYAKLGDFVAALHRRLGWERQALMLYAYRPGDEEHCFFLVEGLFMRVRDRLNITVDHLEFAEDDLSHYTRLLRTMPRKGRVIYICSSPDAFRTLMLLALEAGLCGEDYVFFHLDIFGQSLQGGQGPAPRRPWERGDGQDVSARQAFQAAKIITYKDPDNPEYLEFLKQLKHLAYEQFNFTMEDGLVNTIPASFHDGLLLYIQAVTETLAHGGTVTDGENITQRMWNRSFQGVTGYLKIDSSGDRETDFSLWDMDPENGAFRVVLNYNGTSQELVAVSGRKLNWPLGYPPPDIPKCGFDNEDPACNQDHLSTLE
Experimental: Binding Studies of compound 19 to Human pGC-A Receptor: Surface plasmon resonance (SPR) binding analysis was performed by employing the highly sensitive Biosensing Instrument 4500 system for small molecule binding. For these studies the extracellular domain of human pGC-A was used together with compound 19 at increasing concentrations.

[3] = target: T2, particulate guanylyl cyclase B receptor (pGC-B) (Homo sapiens, UniProt P20594); assay: cGMP selectivity assay in HEK cells overexpressing pGC-B with CNP; assay type: cell-based; settings: in the presence of CNP
T2 construct: expressed in transfected cells; host or cells: HEK
T2 sequence (P20594 23-1047): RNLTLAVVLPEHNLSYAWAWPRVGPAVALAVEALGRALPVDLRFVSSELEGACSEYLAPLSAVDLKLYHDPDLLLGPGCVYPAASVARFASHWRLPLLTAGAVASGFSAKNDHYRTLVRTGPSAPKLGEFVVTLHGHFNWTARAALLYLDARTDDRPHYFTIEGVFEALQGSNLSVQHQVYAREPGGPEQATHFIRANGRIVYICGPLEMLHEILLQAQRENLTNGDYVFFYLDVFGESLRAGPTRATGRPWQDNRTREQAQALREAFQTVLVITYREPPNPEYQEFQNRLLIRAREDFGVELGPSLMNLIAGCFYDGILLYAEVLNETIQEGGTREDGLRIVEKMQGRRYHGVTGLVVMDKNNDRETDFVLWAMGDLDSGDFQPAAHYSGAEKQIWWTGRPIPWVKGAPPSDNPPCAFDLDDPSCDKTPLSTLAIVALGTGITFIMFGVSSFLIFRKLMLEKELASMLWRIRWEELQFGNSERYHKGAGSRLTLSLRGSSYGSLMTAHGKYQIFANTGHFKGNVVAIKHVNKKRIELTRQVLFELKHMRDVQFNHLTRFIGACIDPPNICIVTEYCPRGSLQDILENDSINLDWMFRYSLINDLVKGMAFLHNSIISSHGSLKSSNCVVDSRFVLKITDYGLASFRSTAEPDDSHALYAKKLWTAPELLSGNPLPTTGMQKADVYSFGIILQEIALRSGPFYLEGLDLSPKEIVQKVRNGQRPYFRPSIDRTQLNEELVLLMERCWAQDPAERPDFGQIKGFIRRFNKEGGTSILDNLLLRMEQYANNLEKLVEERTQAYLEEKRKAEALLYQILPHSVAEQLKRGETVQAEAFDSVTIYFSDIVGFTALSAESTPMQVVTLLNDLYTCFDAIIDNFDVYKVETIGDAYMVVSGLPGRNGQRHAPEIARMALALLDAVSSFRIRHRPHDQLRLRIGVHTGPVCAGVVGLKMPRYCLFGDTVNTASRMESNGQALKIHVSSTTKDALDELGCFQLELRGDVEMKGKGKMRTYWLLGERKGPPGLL

`CN(C)CCN1CCCC(C(=O)Nc2nc3c(F)cc(F)cc3s2)C1` (stereo not shown) [Compound 19] was tested, and the “diuresis (urine volume)” value [1] was “increase in diuresis”, the mean arterial pressure ([1]; 0-60 min) was “decrease in mean arterial pressure” and the “plasma cGMP” value ([1]; compared to baseline) was “increase”. The “urinary cGMP” value ([1]; compared to baseline) was “increase”, the “binding to human pGC-A” value ([2]; Response (RU) increasing with concentration) was “clearly validated” and the Kd ([2]; compound 2.5 to 20 μM with 0.25 μM pGC-A receptor extracellular domain) was 4.1 µM. The “cGMP activity in cells expressing pGC-B” value [3] was “devoid of cGMP activity”.
